Where two headings read alike, the source gives them in different places.
Target: T1, human GR (Homo sapiens, UniProt P04150)
T1 construct: naturally expresses the human GR; endogenous in cells
T1 sequence (P04150 1-777): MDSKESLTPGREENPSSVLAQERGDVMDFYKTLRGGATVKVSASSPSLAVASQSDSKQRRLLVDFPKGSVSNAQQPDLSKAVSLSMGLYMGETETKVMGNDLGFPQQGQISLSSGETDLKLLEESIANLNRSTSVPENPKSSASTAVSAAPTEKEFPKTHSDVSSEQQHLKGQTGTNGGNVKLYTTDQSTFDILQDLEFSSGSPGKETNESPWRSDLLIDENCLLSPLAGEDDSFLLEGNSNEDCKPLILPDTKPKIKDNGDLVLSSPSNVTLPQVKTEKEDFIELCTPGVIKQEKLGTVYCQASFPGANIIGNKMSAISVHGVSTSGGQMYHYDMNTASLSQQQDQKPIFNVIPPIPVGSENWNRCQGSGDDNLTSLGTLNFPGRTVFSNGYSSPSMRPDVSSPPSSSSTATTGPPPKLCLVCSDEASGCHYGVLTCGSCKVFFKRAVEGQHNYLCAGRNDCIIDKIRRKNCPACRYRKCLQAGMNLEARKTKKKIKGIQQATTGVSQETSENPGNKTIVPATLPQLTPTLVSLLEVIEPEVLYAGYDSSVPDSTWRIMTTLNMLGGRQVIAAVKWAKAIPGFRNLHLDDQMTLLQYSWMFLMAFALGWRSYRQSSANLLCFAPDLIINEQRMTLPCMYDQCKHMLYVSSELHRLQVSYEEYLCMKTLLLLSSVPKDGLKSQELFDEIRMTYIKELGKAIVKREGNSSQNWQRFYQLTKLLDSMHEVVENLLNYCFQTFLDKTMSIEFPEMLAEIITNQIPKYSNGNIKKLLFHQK
Assay: Trans-activation modulation of glucocorticoid receptor (GRAMMER), MMTV-LUC reporter in A549 cells
Format: cell-based
Conditions: for Emax: Emax relative to the activity obtained with 300 nM dexamethasone, read-out: Transactivation A549 Cells Grammer Emax (%); for EC50: IP = inflection point, read-out: Transactivation A549 Cells Grammer IP
Source text: Trans-Activation Modulation of Glucocorticoid Receptor (GRAMMER)
This assay assesses the ability of test compounds to control transcription from the MMTV-LUC reporter gene in lung adenocarcinoma A549 cells or HeLa cells, a human […] cell line that naturally expresses the human GR. The assay measures induction of a modified MMTV LTR/promoter linked to the LUC reporter gene.
The routine transient assay consists of plating 7,000-25,000 cells/well of a white, clear-bottom 96-well plate. Alternatively, 384-well plates can be used at a cell concentration of 10,000/well. The media that the cells are plated in is “exponential growth medium” which consists of phenol red-free RPMI1640 containing 10% FBS, 4 mM L-glutamine, 20 mM HEPES, 10 ug/mL human insulin, and 20 ug/mL gentamicin. Incubator conditions are 37° C. and 5% C02. The transfection is done in batch mode. The cells are trypsinized and counted to the right cell number in the proper amount of fresh media. It is then gently mixed with the FuGene6/DNA 25 mix and plated onto the 96 or 384-well plate, all the wells receive 100 uL or 40 uL, respectively, of medium+lipid/DNA complex then incubated 37° C. overnight. The transfection cocktail consists of serum-free OptiMEM, FuGene6 reagent and DNA. The manufacturer's (Roche Biochemical) protocol for cocktail setup is as follows: The lipid to DNA ratio is approximately 2.5:1 and the incubation time is 20 min at room temperature. Sixteen to 24 h after transfection, the cells are treated with dexamethasone to a final concentration of 10 nM as well as the compound of interest, such that final DMSO (vehicle) concentration is equal to or less than 1%. Each plate also contains samples that are treated with 10 nM dexamethasone alone, which is used as the 100% activity control. The cells are exposed to the compounds for 24 h. After 24 h, the cells are lysed by a Promega cell culture lysis buffer for approximately 30 min and then the luciferase activity in the extracts is assayed in the 96-well format luminometer. In 384 well format, Steady-Glo (Promega) or Steady-Lite (PerkinElmer) can be used by adding an equal volume of reagent to the media present in each well. Activity induced by 10 nM dexamethasone alone is set at 100% activity. Antagonist activity is calculated by determining the decrease in dexamethasone-induced activity in response to compound treatment relative to samples that were treated with dexamethasone alone. Results are expressed as % inhibition of 10 nM dexamethasone activity or as fold of 10 nM dexamethasone activity. This transactivation assay can be performed in an agonist and antagonist mode to identify these different activities.
Activity of test compounds is calculated as the Emax relative to the activity obtained with 300 nM dexamethasone. […] The exemplified tissue selective glucocorticoid receptor modulators of the present invention display agonist activity in this assay of greater than 5% and less than 100%, and maximal transactivation activity less then maximal transrepression activity. The action of compounds is also tested in an antagonist mode (Anti-GRAMMER) in which the cells are treated with medium containing an agonist such as 10 nM DEX and the ability of agents to inhibit the activation by an agonist is measured.

Emax (A549, A549 cells) [%]	EC50 (A549 cells) [nM]	Compound	Emax (A549 cells) [%]
13	21	NC(=O)Cc1c(F)cccc1CC[C@]1(O)CCC2=Cc3c(cnn3-c3ccc(F)cc3)C[C@@]21C1CC1 [Example 61, 2-(2-{2-[(4aR,5R)-4a-Cyclopropyl-1-(4-fluorophenyl)-5-hydroxy-1,4,4a,5,6,7-hexahydrocyclopenta[f]indazol-5-yl]ethyl}-6-fluorophenyl)acetamide]	
30	78	CC[C@]12Cc3cnn(-c4ccc(F)cc4)c3C=C1CC[C@@]2(O)CC1OC(=O)c2ccccc21 (stereo partly drawn) [Example 71, 3-{[(4aS,5R)-4a-Ethyl-1-(4-fluorophenyl)-5-hydroxy-1,4,4a,5,6,7-hexahydrocyclopenta[f]indazol-5-yl]methyl}-2-benzofuran-1(3H)-one]	
34	224	CC[C@]12Cc3cnn(-c4cccnc4)c3C=C1CC[C@@]2(O)CCc1ccccc1C(N)=O [Example 13, 2-{2-[(4aS,5R)-4a-Ethyl-5-hydroxy-1-(pyridin-3-yl)-1,4,4a,5,6,7-hexahydrocyclopenta[f]indazol-5-yl]ethyl}benzamide]	
47	106	CC[C@]12Cc3cnn(-c4ccc(F)cc4)c3C=C1CC[C@@]2(O)CCc1ccc(F)cc1C(N)=O [Example 8, 2-{2-[(4aS,5R)-4a-Ethyl-1-(4-fluorophenyl)-5-hydroxy-1,4,4a,5,6,7-hexahydrocyclopenta[f]indazol-5-yl]ethyl}-5-fluorobenzamide]	
28	123	CC[C@]12Cc3cnn(-c4ccc(F)cc4)c3C=C1CC[C@@]2(O)CCc1ccccc1CCC(N)=O [Example 22, 3-(2-{2-[(4aS,5R)-4a-Ethyl-1-(4-fluorophenyl)-5-hydroxy-1,4,4a,5,6,7-hexahydrocyclopenta[f]indazol-5-yl]ethyl}phenyl)propanamide]	
34	16	CC[C@]12Cc3cnn(-c4ccc(F)cc4)c3C=C1CC[C@@]2(O)CCc1ccccc1S(C)(=O)=O [Example 42, (4aS,5R)-4a-Ethyl-1-(4-fluorophenyl)-5-{2-[2-(methylsulfonyl)phenyl]ethyl}-1,4,4a,5,6,7-hexahydrocyclopenta[f]indazol-5-ol]	
11	31	NC(=O)[C@H](F)c1c(F)cccc1CC[C@]1(O)CCC2=Cc3c(cnn3-c3ccc(F)cc3)C[C@@]21C1CC1 [Example 57, (2R)-2-(2-{2-[(4aR,5R)-4a-Cyclopropyl-1-(4-fluorophenyl)-5-hydroxy-1,4,4a,5,6,7-hexahydrocyclopenta[f]indazol-5-yl]ethyl}-6-fluorophenyl)-2-fluoroethanamide]	
28	92	CC[C@]12Cc3cnn(-c4ccc(F)cc4)c3C=C1CC[C@@]2(O)CCc1ccccc1S(=O)(=O)CC [Example 51, (4aS,5R)-4a-Ethyl-5-{2-[2-(ethylsulfonyl)phenyl]ethyl}-1-(4-fluorophenyl)-1,4,4a,5,6,7-hexahydrocyclopenta[f]indazol-5-ol]	
30	9	NC(=O)c1c(C2CC2)ccnc1CC[C@]1(O)CCC2=Cc3c(cnn3-c3ccc(F)cc3)C[C@@]21C1CC1 [Example 49, 4-Cyclopropyl-2-{2-[(4aR,5R)-4a-cyclopropyl-1-(4-fluorophenyl)-5-hydroxy-1,4,4a,5,6,7-hexahydrocyclopenta[f]indazol-5-yl]ethyl}pyridine-3-carboxamide]	
20	116	CC[C@]12Cc3cnn(-c4cccnc4)c3C=C1CC[C@@]2(O)CCc1cccc(F)c1C#N [Example 10, 2-{2-[(4aS,5R)-4a-Ethyl-5-hydroxy-1-(pyridin-3-yl)-1,4,4a,5,6,7-hexahydrocyclopenta[f]indazol-5-yl]ethyl}-6-fluorobenzonitrile]	
14	116	NC(=O)c1cc(F)cnc1CC[C@]1(O)CCC2=Cc3c(cnn3-c3ccc(F)cc3)C[C@@]21C1CC1 [Example 4, 2-{2-[(4aR,5R)-4a-Cyclopropyl-1-(4-fluorophenyl)-5-hydroxy-1,4,4a,5,6,7-hexahydrocyclopenta[f]indazol-5-yl]ethyl}-5-fluoropyridine-3-carboxamide]	
24	9	N#Cc1cccnc1CC[C@]1(O)CCC2=Cc3c(cnn3-c3ccc(F)cc3)C[C@@]21C1CC1 [Example 31, 2-{2-[(4aR,5R)-4a-Cyclopropyl-1-(4-fluorophenyl)-5-hydroxy-1,4,4a,5,6,7-hexahydrocyclopenta[f]indazol-5-yl]ethyl}pyridine-3-carbonitrile]	
7	143	NC(=O)c1ccccc1CC[C@]1(O)CCC2=Cc3c(cnn3-c3cccc(F)c3)C[C@@]21C1CC1 [Example 7, 2-{2-[(4aR,5R)-4a-Cyclopropyl-1-(3-fluorophenyl)-5-hydroxy-1,4,4a,5,6,7-hexahydrocyclopenta[f]indazol-5-yl]ethyl}benzamide]	
57	12	O=C(NCCO)c1ccccc1CC[C@]1(O)CCC2=Cc3c(cnn3-c3ccc(F)cc3)C[C@@]21C1CC1 [Example 50, 2-{2-[(4aR,5R)-4a-Cyclopropyl-1-(4-fluorophenyl)-5-hydroxy-1,4,4a,5,6,7-hexahydrocyclopenta[f]indazol-5-yl]ethyl}-N-(2-hydroxyethyl)benzamide]	
39	154	NC(=O)CNC(=O)c1cc(F)cnc1CC[C@]1(O)CCC2=Cc3c(cnn3-c3ccc(F)cc3)C[C@@]21C1CC1 [Example 44, N-(2-Amino-2-oxoethyl)-2-{2-[(4aR,5R)-4a-cyclopropyl-1-(4-fluorophenyl)-5-hydroxy-1,4,4a,5,6,7-hexahydrocyclopenta[f]indazol-5-yl]ethyl}-5-fluoropyridine-3-carboxamide]	
31	83	CC[C@]12Cc3cnn(-c4ccc(F)cc4)c3C=C1CC[C@@]2(O)CC(O)c1ncccc1Cl (stereo partly drawn) [Example 70, (4aS,5R)-5-[2-(3-Chloropyridin-2-yl)-2-hydroxyethyl]-4a-ethyl-1-(4-fluorophenyl)-1,4,4a,5,6,7-hexahydrocyclopenta[f]indazol-5-ol]	
41	65	CC[C@]12Cc3cnn(-c4ccc(F)cc4)c3C=C1CC[C@@]2(O)CC(O)c1c(F)ccnc1Cl (stereo partly drawn) [Example 74, (4aS,5R)-5-[2-(2-Chloro-4-fluoropyridin-3-yl)-2-hydroxyethyl]-4a-ethyl-1-(4-fluorophenyl)-1,4,4a,5,6,7-hexahydrocyclopenta[f]indazol-5-ol]	

Compound	Emax (A549, A549 cells) [%]	EC50 (A549 cells) [nM]	Emax (A549 cells) [%]
CC[C@]12Cc3cnn(-c4ccc(F)cc4)c3C=C1CC[C@@]2(O)CCc1nccc(OC)c1C(F)C(N)=O (stereo partly drawn) [Example 65, 2-(2-{2-[(4aS,5R)-4a-Ethyl-1-(4-fluorophenyl)-5-hydroxy-1,4,4a,5,6,7-hexahydrocyclopenta[f]indazol-5-yl]ethyl}-4-methoxypyridin-3-yl)-2-fluoroacetamide]		175	34
